The values that follow come from publication PMC6058667 (Drug Delivery, 2018).

One assay deals with HepG-2 cells. The assay is described as follows: MTT cytotoxicity assay. It counts as cell-based. To be noted: HepG-2 hepatoma cell line, 48 h. The protocol:
The in vitro cytotoxicity of CuB-MMs-CPs was assessed using the MTT assay. HepG-2 cells were seeded onto 96-well plates in 200 μL. DMEM was applied to obtain a concentration of 5000 cells per well and cultured at 37 °C, 5% CO2 for 24 h to allow attachment of cells. […] The percentage of cell viability was calculated on the basis of the optical density values at 490 nm of the sample wells, which contained cells treated with the culture medium.

The test system of a further assay is HepG-2 xenografts. Description: Antitumor study in nude mice bearing HepG-2 xenografts. Format: in vivo. To be noted: oral, equivalent CuB dose 2 mg/kg, versus saline. The method, then:
For in vivo study, we used a nude mouse as a model for HepG-2 […]. […] All treatments were orally administered on days 1, 3, 5, 7, 9, 11, 13, 15, 17, 19, and 21. The volume of the tumor was measured daily. On day 22, mice were killed and tumors were weighed.

Usually IC50 stands for the point on the concentration scale where inhibition reaches its midpoint. In the assay with HepG-2 cells, Cucurbitacin B [CuB] displayed an IC50 of 104 ± 50.3 nM. The Tumor growth result with HepG-2 xenografts is listed as “slightly slower growth than animals administered with saline”.
